# Source: paper PMC11356571, “The Comparative Metabolism of a Novel Hepatocellular Carcinoma Therapeutic Agent, 2,3-Diamino-N-(4-(benzo[d]thiazol-2-yl)phenyl)propanamide, in Human and Animal Hepatocytes” (Metabolites, 2024)
# What was measured:
# Assay type in all cases: in vitro ADME
# [1] = target: T1, CYP2C9 (Homo sapiens, UniProt P11712); test: Incubation with human cDNA-expressed CYP2C9; details: CYP2C9, 30 min at 37 °C with NADPH; ETN101 10 μM or M1 1 μM; diclofenac positive control
# T1 construct: purchased Corning Life Sciences (Woburn, MA, USA)
# T1 sequence (P11712 whole entry): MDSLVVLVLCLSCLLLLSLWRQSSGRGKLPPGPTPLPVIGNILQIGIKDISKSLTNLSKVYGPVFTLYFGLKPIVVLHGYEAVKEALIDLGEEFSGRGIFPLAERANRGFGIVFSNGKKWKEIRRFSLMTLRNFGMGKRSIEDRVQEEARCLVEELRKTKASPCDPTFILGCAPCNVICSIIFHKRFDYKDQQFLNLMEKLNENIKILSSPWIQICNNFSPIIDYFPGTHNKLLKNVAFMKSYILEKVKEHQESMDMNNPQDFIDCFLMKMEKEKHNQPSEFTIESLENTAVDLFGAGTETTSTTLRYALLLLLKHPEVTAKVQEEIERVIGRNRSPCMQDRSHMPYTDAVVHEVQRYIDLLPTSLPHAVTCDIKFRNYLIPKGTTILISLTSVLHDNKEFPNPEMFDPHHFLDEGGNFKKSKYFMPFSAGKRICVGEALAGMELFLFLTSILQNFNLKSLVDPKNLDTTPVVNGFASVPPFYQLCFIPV
# Experimental: The mobile phases comprised 0.1% (v/v) formic acid in water (mobile phase A) and 0.1% formic acid (v/v) in acetonitrile (mobile phase B). […] The column and auto-sampler were maintained at 40 °C and 4 °C, respectively. ETN101, M1, and M2 were detected via MRM using ESI in the positive mode. […] Mass Hunter software (Agilent Technologies) was used to control the LC-MS/MS instrument and for data processing.
# [2] = target: T2, CYP2D6 (Homo sapiens, UniProt P10635); test: Incubation with human cDNA-expressed CYP2D6; details: CYP2D6, 30 min at 37 °C with NADPH; ETN101 10 μM or M1 1 μM
# T2 construct: purchased Corning Life Sciences (Woburn, MA, USA)
# T2 sequence (P10635 whole entry): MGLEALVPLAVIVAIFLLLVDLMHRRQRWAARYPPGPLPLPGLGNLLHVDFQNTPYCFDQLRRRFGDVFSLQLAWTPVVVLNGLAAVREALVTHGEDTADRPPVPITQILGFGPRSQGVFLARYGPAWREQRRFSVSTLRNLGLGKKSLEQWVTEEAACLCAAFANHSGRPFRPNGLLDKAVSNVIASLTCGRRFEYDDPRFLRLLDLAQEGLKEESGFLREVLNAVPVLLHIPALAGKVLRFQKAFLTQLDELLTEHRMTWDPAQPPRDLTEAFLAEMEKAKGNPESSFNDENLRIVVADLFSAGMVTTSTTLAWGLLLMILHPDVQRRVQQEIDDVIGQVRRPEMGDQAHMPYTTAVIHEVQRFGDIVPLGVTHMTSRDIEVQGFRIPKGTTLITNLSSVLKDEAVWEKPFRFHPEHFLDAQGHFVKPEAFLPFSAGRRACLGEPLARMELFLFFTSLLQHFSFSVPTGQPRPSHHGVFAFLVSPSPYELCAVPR
# Experimental: (§1) ETN101 or M1 was incubated with nine human cDNA-expressed CYP enzymes (1A2, 2A6, 2B6, 2C8, 2C9, 2C19, 2D6, 2E1, and 3A4) to identify the CYPs involved in the metabolism of ETN101. Based on the preliminary study, the incubation conditions were determined as follows: Briefly, reaction mixtures of 50 μL containing ETN101 (final concentration: 10 μM) or M1 (final concentration: 1 μM), and CYPs (final amount: 5 pmol for CYP1A2, 2A6, 2C8, 2C9, 2C19, 2D6, and 3A4; 10 pmol for CYP2B6 and 2E1) were prepared in 0.1 M potassium phosphate buffer. The reaction was initiated by adding 50 μL of NADPH- regenerating system; the mixtures were incubated for 0 min or 30 min at 37 °C in triplicate. Reactions were terminated by the addition of 100 μL of ice-cold acetonitrile containing the IS (camptothecin, 200 ng/mL). Samples were centrifuged at 13,000 rpm for 5 min at 4 °C. An aliquot of 2 μL supernatant was injected in LC–MS/MS system.
# (§2) For enzyme characterization, an Agilent 6460 triple quadrupole mass spectrometer coupled with a 1260 HPLC system (Agilent Technologies, Santa Clara, CA, USA) and a Kinetex Halo® C18 column (2.7 μm, 2.1 × 50 mm, Advanced Material Technology, Wilmington, DE, USA) were used for chromatographic separation. […] ETN101, M1, and M2 were detected via MRM using ESI in the positive mode. […]
# [3] = target: T3, CYP2B6 (Homo sapiens, UniProt P20813); test: Incubation with human cDNA-expressed CYP2B6; details: CYP2B6, 30 min at 37 °C with NADPH; ETN101 10 μM or M1 1 μM
# T3 construct: purchased Cypex Ltd. (Dundee, UK)
# T3 sequence (P20813 1-491): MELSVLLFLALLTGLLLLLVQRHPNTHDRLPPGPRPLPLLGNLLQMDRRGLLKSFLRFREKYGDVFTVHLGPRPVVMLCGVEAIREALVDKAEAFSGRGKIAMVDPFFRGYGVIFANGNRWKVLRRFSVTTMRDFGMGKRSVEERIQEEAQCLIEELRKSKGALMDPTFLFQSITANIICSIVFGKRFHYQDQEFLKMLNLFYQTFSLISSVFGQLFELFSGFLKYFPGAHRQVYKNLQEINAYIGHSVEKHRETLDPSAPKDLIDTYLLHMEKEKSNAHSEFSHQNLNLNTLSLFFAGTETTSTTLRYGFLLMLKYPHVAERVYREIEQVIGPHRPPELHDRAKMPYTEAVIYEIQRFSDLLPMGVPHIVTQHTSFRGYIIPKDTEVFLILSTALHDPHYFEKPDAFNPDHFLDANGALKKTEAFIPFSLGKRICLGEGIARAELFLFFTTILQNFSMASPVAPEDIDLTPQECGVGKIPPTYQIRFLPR
# Experimental: as §1, §2
# [4] = target: T4, CYP2E1 (Homo sapiens, UniProt P05181); test: Incubation with human cDNA-expressed CYP2E1; details: CYP2E1, 30 min at 37 °C with NADPH; ETN101 10 μM or M1 1 μM
# T4 construct: purchased Corning Life Sciences (Woburn, MA, USA)
# T4 sequence (P05181 whole entry): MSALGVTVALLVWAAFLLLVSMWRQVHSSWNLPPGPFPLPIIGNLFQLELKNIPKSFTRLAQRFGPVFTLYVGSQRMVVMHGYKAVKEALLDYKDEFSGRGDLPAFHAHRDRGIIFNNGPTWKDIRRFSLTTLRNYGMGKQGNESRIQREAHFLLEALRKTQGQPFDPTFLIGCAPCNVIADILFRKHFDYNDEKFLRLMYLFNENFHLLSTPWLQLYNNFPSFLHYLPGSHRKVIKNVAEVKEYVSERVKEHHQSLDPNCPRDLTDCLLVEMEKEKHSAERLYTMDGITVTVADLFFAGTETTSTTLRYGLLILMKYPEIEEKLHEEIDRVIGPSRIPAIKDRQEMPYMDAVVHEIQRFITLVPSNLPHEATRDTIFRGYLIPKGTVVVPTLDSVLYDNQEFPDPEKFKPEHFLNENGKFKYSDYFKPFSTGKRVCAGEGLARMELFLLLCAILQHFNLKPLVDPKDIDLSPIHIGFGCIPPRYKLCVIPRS
# Experimental: as §1, §2
SMILES,Percentage remaining [1] [%],Percentage remaining [2] [%],Percentage remaining [3] [%],Percentage remaining [4] [%]
"NCC(N)C(=O)Nc1ccc(-c2nc3ccccc3s2)cc1 (centres unmarked) [ETN101, 2,3-diamino-N-(4-(benzo[d]thiazol-2-yl)phenyl)propanamide]",110.8,86.9,92.8,81.1
"Nc1ccc(-c2nc3ccccc3s2)cc1 [M1, 2-(4-aminophenyl)benzothiazole]",80.1,83.0,109.8,97.3
